Where “and” joins values, the source holds several entries; their conditions need not be identical. Equal values may be shown once. Results filed as inconclusive are left out.
Test system: BDF1 mice, Friend leukemia sc, tumor weight T/C
Experiment: NCI In Vivo Anticancer Drug Screen. Data for tumor model Friend Virus Leukemia (Solid) (subcutaneous) in B6D2F1 (BDF1) mice
Conditions: endpoint: mean tumor weight, higher = larger tumour
Procedure: The antitumor activity of compounds was measured in mice bearing transplantable tumors. Survival or tumor size were measured and the results are expressed as the measurement made in the treated group (T) divided by the measurement made in the vehicle treated control group (C). The tumor model used in this assay is Friend Virus Leukemia (Solid) (subcutaneous) in B6D2F1 (BDF1) mice

[1] = dose: 1.0 mg/kg/injection, schedule: Q01DX011 (ip), vehicle: carboxymethylcellulose (CMC)
[2] = dose: 10.0 mg/kg/injection, schedule: Q01DX011 (ip), vehicle: carboxymethylcellulose (CMC)
[3] = dose: 15.0 mg/kg/injection, schedule: Q01DX011 (ip), vehicle: carboxymethylcellulose (CMC)
[4] = dose: 25.0 mg/kg/injection, schedule: Q01DX011 (ip), vehicle: carboxymethylcellulose (CMC)
[5] = dose: 50.0 mg/kg/injection, schedule: Q01DX011 (ip), vehicle: carboxymethylcellulose (CMC)
[6] = dose: 100.0 mg/kg/injection, schedule: Q01DX011 (ip), vehicle: carboxymethylcellulose (CMC)
[7] = dose: 0.5 mg/kg/injection, schedule: Q01DX011 (ip), vehicle: carboxymethylcellulose (CMC)
[8] = dose: 3.0 mg/kg/injection, schedule: Q01DX011 (ip), vehicle: carboxymethylcellulose (CMC)
[9] = dose: 7.0 mg/kg/injection, schedule: Q01DX011 (ip), vehicle: carboxymethylcellulose (CMC)

C[C@]12C=CC(=O)C=C1CC[C@@H]1[C@@H]2C(=O)C[C@@]2(C)[C@H]1CC[C@]2(O)C(=O)CO
T/C (dose: 10.0 mg/kg/injection, schedule: Q01DX011 (sc), vehicle: steriod suspending solution): 92 % of control | T/C (dose: 20.0 mg/kg/injection, schedule: Q01DX011 (sc), vehicle: steriod suspending solution): 27 % of control | T/C (dose: 25.0 mg/kg/injection, schedule: Q01DX011 (sc), vehicle: steriod suspending solution): 23 % of control | T/C (dose: 50.0 mg/kg/injection, schedule: Q01DX011 (sc), vehicle: steriod suspending solution): 11 % of control | T/C (dose: 100.0 mg/kg/injection, schedule: Q01DX011 (sc), vehicle: steriod suspending solution): 9 % of control | T/C (dose: 200.0 mg/kg/injection, schedule: Q01DX011 (sc), vehicle: steriod suspending solution): 11 % of control

CCC1=C(c2cc(Cl)c3ccccc3c2OCC(=O)O)OC(CC)(C(=O)c2cc(Cl)c3ccccc3c2OCC(=O)O)CC1 (stereo not drawn)
T/C (dose: 30.0 mg/kg/injection, schedule: Q01DX011 (ip), vehicle: carboxymethylcellulose (CMC)): 52 % of control | T/C (dose: 60.0 mg/kg/injection, schedule: Q01DX011 (ip), vehicle: carboxymethylcellulose (CMC)): 55 % of control | T/C (dose: 120.0 mg/kg/injection, schedule: Q01DX011 (ip), vehicle: carboxymethylcellulose (CMC)): 63 % of control | T/C (dose: 240.0 mg/kg/injection, schedule: Q01DX011 (ip), vehicle: carboxymethylcellulose (CMC)): 66 % of control

COc1ccc(Nc2ccnc3cc(Cl)ccc23)cc1CN(CCCl)CCCl
T/C [1]: 81 % of control | T/C (dose: 2.0 mg/kg/injection, schedule: Q01DX011 (ip), vehicle: carboxymethylcellulose (CMC)): 76 % of control | T/C (dose: 4.0 mg/kg/injection, schedule: Q01DX011 (ip), vehicle: carboxymethylcellulose (CMC)): 42 % of control

Cc1cc2nc3c(=O)[nH]c(=O)nc-3n(CC(O)C(O)C(O)C(O)CO)c2cc1C (stereo not drawn)
T/C (dose: 56.0 mg/kg/injection, schedule: Q01DX011 (ip), vehicle: carboxymethylcellulose (CMC)): 103 % of control | T/C (dose: 113.0 mg/kg/injection, schedule: Q01DX011 (ip), vehicle: carboxymethylcellulose (CMC)): 110 % of control

N#[N+]c1cnc([O-])[nH]c1=O
T/C (dose: 1.3 mg/kg/injection, schedule: Q01DX011 (ip), vehicle: carboxymethylcellulose (CMC)): 113 % of control | T/C (dose: 11.5 mg/kg/injection, schedule: Q01DX011 (ip), vehicle: carboxymethylcellulose (CMC)): 49 % of control

CN(C)Nc1ncnc2nc[nH]c12
T/C (dose: 5.0 mg/kg/injection, schedule: Q01DX011 (ip), vehicle: carboxymethylcellulose (CMC)): 74 % of control | T/C [2]: 80 % of control | T/C (dose: 20.0 mg/kg/injection, schedule: Q01DX011 (ip), vehicle: carboxymethylcellulose (CMC)): 59 % of control and 65 % of control | T/C (dose: 40.0 mg/kg/injection, schedule: Q01DX011 (ip), vehicle: carboxymethylcellulose (CMC)): 17 % of control and 35 % of control

C[C@@H]1C[C@@H]([C@H](O)CC2CC(=O)NC(=O)C2)C(=O)[C@@H](C)C1
T/C (dose: 4.3 mg/kg/injection, schedule: Q01DX011 (ip), vehicle: carboxymethylcellulose (CMC)): 80 % of control | T/C [3]: 31 % of control and 46 % of control

c1ccc(CNc2ncnc3[nH]ncc23)cc1
T/C (dose: 1.12 mg/kg/injection, schedule: Q01DX011 (ip), vehicle: carboxymethylcellulose (CMC)): 109 % of control | T/C (dose: 2.25 mg/kg/injection, schedule: Q01DX011 (ip), vehicle: carboxymethylcellulose (CMC)): 77 % of control | T/C (dose: 4.5 mg/kg/injection, schedule: Q01DX011 (ip), vehicle: carboxymethylcellulose (CMC)): 78 % of control | T/C (dose: 9.0 mg/kg/injection, schedule: Q01DX011 (ip), vehicle: carboxymethylcellulose (CMC)): 117 % of control | T/C (dose: 18.5 mg/kg/injection, schedule: Q01DX011 (ip), vehicle: carboxymethylcellulose (CMC)): 15 % of control

CC(=O)Nc1ccc2nc3ccc(NC(C)=O)cc3[n+](-c3ccccc3)c2c1
T/C [4]: 101 % of control | T/C [5]: 112 % of control | T/C [6]: 92 % of control

CC(C)(CC(=O)O)CC(=O)OCC(=O)[C@@]1(O)CC[C@H]2[C@@H]3CCC4=CC(=O)C=C[C@]4(C)[C@H]3[C@@H](O)C[C@@]21C
T/C (dose: 9.0 mg/kg/injection, schedule: Q01DX011 (sc), vehicle: steriod suspending solution): 61 % of control | T/C (dose: 19.0 mg/kg/injection, schedule: Q01DX011 (sc), vehicle: steriod suspending solution): 58 % of control | T/C (dose: 37.5 mg/kg/injection, schedule: Q01DX011 (sc), vehicle: steriod suspending solution): 48 % of control | T/C (dose: 38.0 mg/kg/injection, schedule: Q01DX011 (sc), vehicle: steriod suspending solution): 50 % of control | T/C (dose: 75.0 mg/kg/injection, schedule: Q01DX011 (sc), vehicle: steriod suspending solution): 46 % of control and 47 % of control | T/C (dose: 150.0 mg/kg/injection, schedule: Q01DX011 (sc), vehicle: steriod suspending solution): 46 % of control and 47 % of control | T/C (dose: 300.0 mg/kg/injection, schedule: Q01DX011 (sc), vehicle: steriod suspending solution): 37 % of control and 38 % of control | T/C (dose: 600.0 mg/kg/injection, schedule: Q01DX011 (sc), vehicle: steriod suspending solution): 31 % of control

Oc1cc(CN(CCCl)CCCl)c(O)cc1CN(CCCl)CCCl
T/C (dose: 0.44 mg/kg/injection, schedule: Q01DX011 (ip), vehicle: carboxymethylcellulose (CMC)): 63 % of control | T/C (dose: 0.88 mg/kg/injection, schedule: Q01DX011 (ip), vehicle: carboxymethylcellulose (CMC)): 86 % of control

Clc1ncnc2nc[nH]c12
T/C [5]: 71 % of control | T/C [6]: 47 % of control | T/C (dose: 200.0 mg/kg/injection, schedule: Q01DX011 (ip), vehicle: carboxymethylcellulose (CMC)): 18 % of control

C[n+]1c(-c2ccccc2)c2cc(N)ccc2c2ccccc21
T/C (dose: 4.4 mg/kg/injection, schedule: Q01DX011 (ip), vehicle: carboxymethylcellulose (CMC)): 103 % of control | T/C (dose: 6.6 mg/kg/injection, schedule: Q01DX011 (ip), vehicle: carboxymethylcellulose (CMC)): 117 % of control | T/C [2]: 53 % of control | T/C [3]: 89 % of control

O=C1C=CC(=Nc2ccc(O)c3ncccc23)c2cccnc21
T/C (dose: 6.0 mg/kg/injection, schedule: Q01DX011 (ip), vehicle: carboxymethylcellulose (CMC)): 71 % of control | T/C (dose: 12.5 mg/kg/injection, schedule: Q01DX011 (ip), vehicle: carboxymethylcellulose (CMC)): 84 % of control

CCCCCC(=O)O[C@]1(C(C)=O)CC[C@H]2[C@@H]3CCC4=CC(=O)CC[C@]4(C)[C@H]3CC[C@@]21C
T/C (dose: 125.0 mg/kg/injection, schedule: Q01DX011 (sc), vehicle: steriod suspending solution): 173 % of control | T/C (dose: 250.0 mg/kg/injection, schedule: Q01DX011 (sc), vehicle: steriod suspending solution): 166 % of control | T/C (dose: 375.0 mg/kg/injection, schedule: Q01DX011 (sc), vehicle: steriod suspending solution): 156 % of control | T/C (dose: 750.0 mg/kg/injection, schedule: Q01DX011 (sc), vehicle: steriod suspending solution): 124 % of control

O=C(O)CCCc1ccc(N(CCCl)CCCl)cc1
T/C (dose: 1.87 mg/kg/injection, schedule: Q01DX011 (ip), vehicle: carboxymethylcellulose (CMC)): 93 % of control | T/C (dose: 7.5 mg/kg/injection, schedule: Q01DX011 (ip), vehicle: carboxymethylcellulose (CMC)): 76 % of control and 91 % of control

CCn1cnc2c(=S)nc(N)[nH]c21
T/C [7]: 76 % of control | T/C [1]: 89 % of control | T/C [8]: 24 % of control and 49 % of control | T/C [9]: 11 % of control | T/C [3]: 4 % of control and 18 % of control

c1ncc2[nH]cnc2n1
T/C (dose: 27.5 mg/kg/injection, schedule: Q01DX011 (ip), vehicle: carboxymethylcellulose (CMC)): 104 % of control | T/C (dose: 55.0 mg/kg/injection, schedule: Q01DX011 (ip), vehicle: carboxymethylcellulose (CMC)): 87 % of control | T/C (dose: 110.0 mg/kg/injection, schedule: Q01DX011 (ip), vehicle: carboxymethylcellulose (CMC)): 81 % of control | T/C (dose: 219.0 mg/kg/injection, schedule: Q01DX011 (ip), vehicle: carboxymethylcellulose (CMC)): 43 % of control

Cn1cnc([N+](=O)[O-])c1Sc1nc(N)nc2c1ncn2C1OC(CO)C(O)C1O (stereo not drawn)
T/C (dose: 0.25 mg/kg/injection, schedule: Q01DX011 (ip), vehicle: carboxymethylcellulose (CMC)): 73 % of control | T/C [7]: 61 % of control | T/C [1]: 31 % of control and 32 % of control | T/C [8]: 10 % of control and 24 % of control | T/C [9]: 5 % of control

C1CC[N-]CC1.C1CC[N-]CC1.C1CC[N-]CC1.C1CC[N-]CC1.[Cl][Co][Cl]
T/C [5]: 160 % of control

O=[n+]1c2c(n([O-])c3ccccc31)-c1cccc3cccc-2c13
T/C [4]: 87 % of control | T/C [5]: 55 % of control | T/C [6]: 43 % of control

O=[N+]([O-])c1ccc(O)c([N+](=O)[O-])c1
T/C (dose: 3.87 mg/kg/injection, schedule: Q01DX011 (ip), vehicle: carboxymethylcellulose (CMC)): 101 % of control | T/C (dose: 6.75 mg/kg/injection, schedule: Q01DX011 (ip), vehicle: carboxymethylcellulose (CMC)): 102 % of control | T/C (dose: 13.5 mg/kg/injection, schedule: Q01DX011 (ip), vehicle: carboxymethylcellulose (CMC)): 103 % of control | T/C (dose: 27.0 mg/kg/injection, schedule: Q01DX011 (ip), vehicle: carboxymethylcellulose (CMC)): 123 % of control

Reference: PubChem BioAssay AID228 (DTP/NCI, 2004)
